Data from patent US4698352A, “4-oxo-1,4-dihydronicotinic acid derivatives, salts thereof, and antibacterial agents containing the same” (Toyama Chemical Co., Ltd., priority 1982, dated 1987).
Values after ≈ are worked out from the molar mass of the structure shown. Like-named read-outs stand apart in the source and are kept apart here.

Tests used:
Assay in all cases: Antibacterial activity (MIC), agar dilution
Type in all cases: cell-based
St. aureus F-137* = conditions: Staphylococcus aureus, 20 h
Excerpt: (§1) The amount of bacteria inoculated was 10^4 cells per plate (10^6 cells per ml).
(§2) * Penicillinase-producing bacteria

Ps. aeruginosa GN3379* = conditions: Pseudomonas aeruginosa, 20 h; Ps. aeruginosa GN3379, penicillinase-producing; 10^6 cells per ml; read-out: MIC
Excerpt: as §1, §2

Kl. pneumoniae Y-4* = conditions: Klebsiella pneumoniae, 20 h, Kl. pneumoniae Y-4, penicillinase-producing, 10^6 cells per ml
Excerpt: as §1, §2

E. coli TK-3* = conditions: Escherichia coli, 20 h, E. coli TK-3, penicillinase-producing; 10^6 cells per ml; read-out: MIC
Excerpt: as §1, §2

E. coli GN5482** = conditions: Escherichia coli, 20 h; E. coli GN5482, cephalospolinase-producing; 10^6 cells per ml; read-out: MIC
Excerpt: as §1
(§3) ** Cephalospolinase-producing bacteria

Pro. vulgaris GN76** = conditions: Proteus vulgaris
Excerpt: as §1, §3

Ps. aeruginosa GN918** = conditions: Pseudomonas aeruginosa, Ps. aeruginosa GN918, cephalospolinase-producing, 10^6 cells per ml
Excerpt: as §1, §3

Pro. mirabilis T-111 = conditions: Proteus mirabilis, 37° C.
Excerpt: as §1

Pro. morganii T-216 = conditions: Morganella morganii, 37° C.
Excerpt: as §1

St. aureus FDA209P = conditions: Staphylococcus aureus, FDA209P, 20 h, St. aureus FDA209P; 10^6 cells per ml; 37° C., 20 hours; read-out: MIC
Excerpt: as §1

Ent. cloacae IID977 = conditions: Enterobacter cloacae, IID977, 20 h, Ent. cloacae IID977; 10^6 cells per ml; 37° C., 20 hours; read-out: MIC
Excerpt: as §1

Pro. vulgaris GN3027 = conditions: Proteus vulgaris, GN3027, 20 h, Pro. vulgaris GN3027; 10^6 cells per ml; 37° C., 20 hours; read-out: MIC
Excerpt: as §1

Kl. pneumoniae Y-41 = conditions: Klebsiella pneumoniae, Y41, 10^6 cells per ml, 37° C., 20 hours, read-out: MIC
Excerpt: as §1

Kl. pneumoniae Y-50 = conditions: Klebsiella pneumoniae, Y50, 20 h, 10^6 cells per ml, 37° C.
Excerpt: as §1

E. coli TK-111 = conditions: Escherichia coli, TK111, 20 h
Excerpt: as §1

Ps. aeruginosa IFO3445 = conditions: Pseudomonas aeruginosa
Excerpt: as §1

Aci. antitratus A-6 = conditions: 20 h
Excerpt: as §1

Ps. aeruginosa S-68 = conditions: Pseudomonas aeruginosa
Excerpt: as §1

E. coli NIHJ JC-2 = conditions: Escherichia coli, NIHJJC2, 20 h, E. coli NIHJ JC-2; 10^6 cells per ml; 37° C., 20 hours; read-out: MIC
Excerpt: as §1

[1] = St. aureus F-137, penicillinase-producing, 10^6 cells per ml, read-out: MIC
[2] = 20 h, Pro. vulgaris GN76, cephalospolinase-producing, 10^6 cells per ml, read-out: MIC
[3] = T111, 10^6 cells per ml, 20 hours, read-out: MIC
[4] = T216, 10^6 cells per ml, 20 hours, read-out: MIC
[5] = E. coli TK-111, 10^6 cells per ml, 37° C., 20 hours, read-out: MIC
[6] = Ps. aeruginosa IFO3445, 10^6 cells per ml, 37° C., 20 hours, read-out: MIC
[7] = Aci. antitratus A-6, 10^6 cells per ml, 37° C., 20 hours, read-out: MIC
[8] = S68, Ps. aeruginosa S-68, 10^6 cells per ml, 37° C., 20 hours, read-out: MIC

Row | SMILES | MIC (St. aureus F-137*; [1]) | MIC (Ps. aeruginosa GN3379*) | MIC (E. coli TK-3*) | MIC (E. coli GN5482**) | MIC (Pro. vulgaris GN76**; [2]) | MIC (Ps. aeruginosa GN918**; 20 h, read-out: MIC) | MIC (Pro. mirabilis T-111; [3]) | MIC (Pro. morganii T-216; [4]) | MIC (St. aureus FDA209P) | MIC (Ent. cloacae IID977) | MIC (Pro. vulgaris GN3027) | MIC (Kl. pneumoniae Y-41) | MIC (Kl. pneumoniae Y-50; read-out: MIC) | MIC (E. coli TK-111; [5]) | MIC (Ps. aeruginosa IFO3445; [6]) | MIC (Aci. antitratus A-6; [7]) | MIC (Ps. aeruginosa S-68; [8]) | MIC (E. coli NIHJ JC-2) | MIC (Kl. pneumoniae Y-4*; read-out: MIC) | further results
1 | Cc1cc(O)ccc1-n1cc(C(=O)O)c(=O)cc1-c1ccc(N(C)C)cc1 | ≤ 0.05 µg/mL | 3.13 µg/mL (≈ 8.59 µM) | 0.2 µg/mL (≈ 0.549 µM) | ≤ 0.05 µg/mL | 0.39 µg/mL (≈ 1.07 µM) | 1.56 µg/mL (≈ 4.28 µM) | 0.78 µg/mL (≈ 2.14 µM) | 0.78 µg/mL (≈ 2.14 µM) | ≤ 0.05 µg/mL | 0.39 µg/mL (≈ 1.07 µM) | 0.1 µg/mL (≈ 0.274 µM) | 0.78 µg/mL (≈ 2.14 µM) | 0.2 µg/mL (≈ 0.549 µM) | ≤ 0.05 µg/mL | 3.13 µg/mL (≈ 8.59 µM) | 0.1 µg/mL (≈ 0.274 µM) | 3.13 µg/mL (≈ 8.59 µM) | 0.1 µg/mL (≈ 0.274 µM) |  | MIC (Kl. pneumoniae Y-4*): 0.78 µg/mL (≈ 2.14 µM)
2 | O=C(O)c1cn(-c2ccc(F)cc2)c(C=Cc2cccnc2)cc1=O [drawing 205] | 3.13 µg/mL (≈ 9.31 µM) | 25 µg/mL (≈ 74.3 µM) | 3.13 µg/mL (≈ 9.31 µM) | 0.2 µg/mL (≈ 0.595 µM) | 1.56 µg/mL (≈ 4.64 µM) | 12.5 µg/mL (≈ 37.2 µM) | 12.5 µg/mL (≈ 37.2 µM) |  | 3.13 µg/mL (≈ 9.31 µM) | 3.13 µg/mL (≈ 9.31 µM) | 0.39 µg/mL (≈ 1.16 µM) | 6.25 µg/mL (≈ 18.6 µM) |  | 0.78 µg/mL (≈ 2.32 µM) | 25 µg/mL (≈ 74.3 µM) | 3.13 µg/mL (≈ 9.31 µM) | 12.5 µg/mL (≈ 37.2 µM) | 1.56 µg/mL (≈ 4.64 µM) | 6.25 µg/mL (≈ 18.6 µM) | MIC (Pro. morganii T-216; T216, 20 h, 10^6 cells per ml): 6.25 µg/mL (≈ 18.6 µM); MIC (Kl. pneumoniae Y-50): 0.78 µg/mL (≈ 2.32 µM)
3 | CC=Cc1cc(=O)c(C(=O)O)cn1-c1ccc(O)cc1C |  | 25 µg/mL (≈ 87.6 µM) | 3.13 µg/mL (≈ 11 µM) | 0.39 µg/mL (≈ 1.37 µM) |  | 6.25 µg/mL (≈ 21.9 µM) | 25 µg/mL (≈ 87.6 µM) | 3.13 µg/mL (≈ 11 µM) | 6.25 µg/mL (≈ 21.9 µM) | 6.25 µg/mL (≈ 21.9 µM) | 0.39 µg/mL (≈ 1.37 µM) | 12.5 µg/mL (≈ 43.8 µM) | 1.56 µg/mL (≈ 5.47 µM) |  | 25 µg/mL (≈ 87.6 µM) | 6.25 µg/mL (≈ 21.9 µM) |  | 3.13 µg/mL (≈ 11 µM) | 25 µg/mL (≈ 87.6 µM) | MIC (St. aureus F-137*): 12.5 µg/mL (≈ 43.8 µM); MIC (Pro. vulgaris GN76**; GN76, 20 h): 1.56 µg/mL (≈ 5.47 µM); MIC (E. coli TK-111): 1.56 µg/mL (≈ 5.47 µM); MIC (Ps. aeruginosa S-68; S68, 20 h): 12.5 µg/mL (≈ 43.8 µM)
4 | CN(C)c1ccc(-c2cc(=O)c(C(=O)O)cn2-c2ccc(OS(=O)(=O)O)cc2)cc1 |  | 50 µg/mL (≈ 116 µM) | 6.25 µg/mL (≈ 14.5 µM) | 0.2 µg/mL (≈ 0.465 µM) |  | 12.5 µg/mL (≈ 29 µM) | 25 µg/mL (≈ 58.1 µM) | 12.5 µg/mL (≈ 29 µM) | 0.78 µg/mL (≈ 1.81 µM) | 12.5 µg/mL (≈ 29 µM) | 1.56 µg/mL (≈ 3.62 µM) | 25 µg/mL (≈ 58.1 µM) | 3.13 µg/mL (≈ 7.27 µM) | 0.78 µg/mL (≈ 1.81 µM) | 50 µg/mL (≈ 116 µM) |  | 25 µg/mL (≈ 58.1 µM) | 1.56 µg/mL (≈ 3.62 µM) | 25 µg/mL (≈ 58.1 µM) | MIC (St. aureus F-137*): 3.13 µg/mL (≈ 7.27 µM); MIC (Pro. vulgaris GN76**; GN76, 20 h): 3.13 µg/mL (≈ 7.27 µM); MIC (Aci. antitratus A-6): 3.13 µg/mL (≈ 7.27 µM)
5 | Cc1nc(-c2ccc(-c3cc(=O)c(C(=O)O)cn3-c3ccc(O)cc3C)cc2)co1 | 0.1 µg/mL (≈ 0.249 µM) | 6.25 µg/mL (≈ 15.5 µM) | 0.2 µg/mL (≈ 0.497 µM) | ≤ 0.05 µg/mL | 0.78 µg/mL (≈ 1.94 µM) | 0.78 µg/mL (≈ 1.94 µM) |  |  | 0.1 µg/mL (≈ 0.249 µM) | 0.39 µg/mL (≈ 0.969 µM) | 0.39 µg/mL (≈ 0.969 µM) | 1.56 µg/mL (≈ 3.88 µM) | 0.2 µg/mL (≈ 0.497 µM) | ≤ 0.05 µg/mL |  | 0.39 µg/mL (≈ 0.969 µM) |  | 0.1 µg/mL (≈ 0.249 µM) | 3.13 µg/mL (≈ 7.78 µM) | MIC (Pro. mirabilis T-111; T111, 20 h, 10^6 cells per ml): 1.56 µg/mL (≈ 3.88 µM); MIC (Pro. morganii T-216; T216, 20 h, 10^6 cells per ml): 3.13 µg/mL (≈ 7.78 µM); MIC (Ps. aeruginosa IFO3445; IFO3445, 20 h): 3.13 µg/mL (≈ 7.78 µM); MIC (Ps. aeruginosa S-68; S68, 20 h): 3.13 µg/mL (≈ 7.78 µM)
6 | COc1ccc(-c2ccc(-c3cc(=O)c(C(=O)O)cn3-c3ccc(O)cc3)cc2)s1 | ≤ 0.05 µg/mL | 3.13 µg/mL (≈ 7.46 µM) | 0.39 µg/mL (≈ 0.93 µM) | ≤ 0.05 µg/mL | 0.39 µg/mL (≈ 0.93 µM) | 0.78 µg/mL (≈ 1.86 µM) | 0.78 µg/mL (≈ 1.86 µM) | 0.39 µg/mL (≈ 0.93 µM) | ≤ 0.05 µg/mL | 0.78 µg/mL (≈ 1.86 µM) | 0.2 µg/mL (≈ 0.477 µM) | 1.56 µg/mL (≈ 3.72 µM) | 0.78 µg/mL (≈ 1.86 µM) | 0.1 µg/mL (≈ 0.238 µM) | 6.25 µg/mL (≈ 14.9 µM) | 0.1 µg/mL (≈ 0.238 µM) | 3.13 µg/mL (≈ 7.46 µM) | 0.39 µg/mL (≈ 0.93 µM) | 1.56 µg/mL (≈ 3.72 µM) | 
7 | Cc1ccc(-c2ccc(-c3cc(=O)c(C(=O)O)cn3-c3ccc(O)cc3)cc2)s1 | ≤ 0.05 µg/mL | 6.25 µg/mL (≈ 15.5 µM) | 0.39 µg/mL (≈ 0.967 µM) | ≤ 0.05 µg/mL | 0.39 µg/mL (≈ 0.967 µM) |  | 0.39 µg/mL (≈ 0.967 µM) | 0.78 µg/mL (≈ 1.93 µM) | ≤ 0.05 µg/mL | 0.78 µg/mL (≈ 1.93 µM) | 0.1 µg/mL (≈ 0.248 µM) | 1.56 µg/mL (≈ 3.87 µM) | 0.78 µg/mL (≈ 1.93 µM) | 0.1 µg/mL (≈ 0.248 µM) | 6.25 µg/mL (≈ 15.5 µM) | ≤ 0.05 µg/mL | 3.13 µg/mL (≈ 7.76 µM) | 0.2 µg/mL (≈ 0.496 µM) | 1.56 µg/mL (≈ 3.87 µM) | MIC (Ps. aeruginosa GN918**; GN918, 20 h): 1.56 µg/mL (≈ 3.87 µM)
